Results reported in patent publication US10610520B2, “Heterocyclic compound” (Takeda Pharmaceutical Company Limited, priority 2016, dated 2020).

These compounds were tested against T1, His-hMAGL (recombinant polyhistidine tagged human MAGL protein) (Homo sapiens, UniProt Q99685) (assay: Measurement of MAGL inhibitory activity (arachidonic acid production from 2-arachidonylglycerol, RapidFire-mass spectrometry)). Conditions: MAGL inhibitory rate, test compound 10 μM, 60 min preincubation, 2-arachidonylglycerol substrate.
T1 construct: made in house; host or cells: E. coli BL21(DE3)
T1 sequence (Q99685 1-303): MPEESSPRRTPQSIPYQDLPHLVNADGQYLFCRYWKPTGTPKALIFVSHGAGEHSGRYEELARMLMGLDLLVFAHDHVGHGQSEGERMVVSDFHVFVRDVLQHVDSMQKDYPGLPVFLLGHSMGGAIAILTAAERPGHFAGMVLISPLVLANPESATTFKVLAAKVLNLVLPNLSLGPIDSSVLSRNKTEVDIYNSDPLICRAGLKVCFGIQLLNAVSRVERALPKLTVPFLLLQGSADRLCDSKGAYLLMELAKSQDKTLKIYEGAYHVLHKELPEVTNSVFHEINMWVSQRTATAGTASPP
Type: biochemical
Procedure, shortened: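 Arachidonic acid formed was quantified by online solid-phase extraction and triple-quadrupole MS in negative SRM mode against a d8 internal standard. Reaction: recombinant His-hMAGL (7.5 ng/mL, pH 7.5 Tris buffer with Triton X-100 and BSA) plus 2-AG (5 μL of 150 μM stock) for 10 min at room temperature, quenched with 2% formic acid. Percent inhibition corrected for enzyme-free background.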
Compound `O=C1NC2(CO1)CN(C(=O)c1sc3cc(OC(F)F)cc(C(F)(F)F)c3c1Cl)C2` [Example 292, 2-((3-chloro-6-(difluoromethoxy)-4-(trifluoromethyl)-1-benzothiophen-2-yl)carbonyl)-7-oxa-2,5-diazaspiro[3.4]octan-6-one] has an inhibition at 10 µM of 100%.
`O=C1NC2(CO1)CN(C(=O)c1sc3cc(OC(F)(F)F)cc(Cl)c3c1Cl)C2` [Example 293, 2-((3,4-dichloro-6-(trifluoromethoxy)-1-benzothiophen-2-yl)carbonyl)-7-oxa-2,5-diazaspiro[3.4]octan-6-one] gave an inhibition at 10 µM of 101%.
`COc1cc(F)c2c(Cl)c(C(=O)N3CC4(COC(=O)N4)C3)sc2c1Cl` [Example 294, 2-((3,7-dichloro-4-fluoro-6-methoxy-1-benzothiophen-2-yl)carbonyl)-7-oxa-2,5-diazaspiro[3.4]octan-6-one] showed an inhibition at 10 µM of 100%.
`Cc1cc2c(Cl)c(C(=O)N3CC4(COC(=O)N4)C3)sc2cc1OC(F)(F)F` [Example 295, 2-((3-chloro-5-methyl-6-(trifluoromethoxy)-1-benzothiophen-2-yl)carbonyl)-7-oxa-2,5-diazaspiro[3.4]octan-6-one] showed an inhibition at 10 µM of 101%.
For `Cc1cc(OC(F)(F)F)cc2sc(C(=O)N3CC4(COC(=O)N4)C3)c(Cl)c12` [Example 296, 2-((3-chloro-4-methyl-6-(trifluoromethoxy)-1-benzothiophen-2-yl)carbonyl)-7-oxa-2,5-diazaspiro[3.4]octan-6-one], the inhibition at 10 µM was 101%.
`O=C1NC2(CO1)CN(C(=O)c1sc3c(Cl)ccc(OC(F)(F)F)c3c1Cl)C2` [Example 297, 2-((3,7-dichloro-4-(trifluoromethoxy)-1-benzothiophen-2-yl)carbonyl)-7-oxa-2,5-diazaspiro[3.4]octan-6-one] gave an inhibition at 10 µM of 100%.
Compound `O=C1NC2(CO1)CN(C(=O)c1sc3cc(OC(F)(F)F)c(Cl)cc3c1Cl)C2` [Example 298, 2-((3,5-dichloro-6-(trifluoromethoxy)-1-benzothiophen-2-yl)carbonyl)-7-oxa-2,5-diazaspiro[3.4]octan-6-one] has an inhibition at 10 µM of 100%.
`O=C1NC2(CO1)CN(C(=O)c1sc3ccc(OC(F)(F)F)cc3c1C(F)F)C2` [Example 300, 2-((3-(difluoromethyl)-5-(trifluoromethoxy)-1-benzothiophen-2-yl)carbonyl)-7-oxa-2,5-diazaspiro[3.4]octan-6-one] gave an inhibition at 10 µM of 101%.
Compound `O=C1NC2(CO1)CN(C(=O)c1sc3c(F)ccc(OC(F)(F)F)c3c1Cl)C2` [Example 301, 2-((3-chloro-7-fluoro-4-(trifluoromethoxy)-1-benzothiophen-2-yl)carbonyl)-7-oxa-2,5-diazaspiro[3.4]octan-6-one] has an inhibition at 10 µM of 100%.
Work on `O=C1NC2(CO1)CN(C(=O)c1sc3c(C(F)F)c(OC(F)(F)F)ccc3c1Cl)C2` [Example 302, 2-((3-chloro-7-(difluoromethyl)-6-(trifluoromethoxy)-1-benzothiophen-2-yl)carbonyl)-7-oxa-2,5-diazaspiro[3.4]octan-6-one] yielded an inhibition at 10 µM of 101%.
For `O=C1NC2(CO1)CN(C(=O)c1sc3c(Cl)c(OC(F)F)cc(F)c3c1Cl)C2` [Example 303, 2-((3,7-dichloro-6-(difluoromethoxy)-4-fluoro-1-benzothiophen-2-yl)carbonyl)-7-oxa-2,5-diazaspiro[3.4]octan-6-one], the inhibition at 10 µM was 100%.
Work on `Cc1c(OC(F)F)cc(F)c2c(Cl)c(C(=O)N3CC4(COC(=O)N4)C3)sc12` [Example 304, 2-((3-chloro-6-(difluoromethoxy)-4-fluoro-7-methyl-1-benzothiophen-2-yl)carbonyl)-7-oxa-2,5-diazaspiro[3.4]octan-6-one] yielded an inhibition at 10 µM of 100%.
Compound `O=C1NC2(CO1)CN(C(=O)c1sc3cc(C(F)(F)F)cc(OC(F)F)c3c1Cl)C2` [Example 305, 2-((3-chloro-4-(difluoromethoxy)-6-(trifluoromethyl)-1-benzothiophen-2-yl)carbonyl)-7-oxa-2,5-diazaspiro[3.4]octan-6-one] has an inhibition at 10 µM of 100%.
With `O=C1NC2(CO1)CN(C(=O)c1sc3cc(OC(F)(F)F)c(C(F)F)cc3c1Cl)C2` [Example 306, 2-((3-chloro-5-(difluoromethyl)-6-(trifluoromethoxy)-1-benzothiophen-2-yl)carbonyl)-7-oxa-2,5-diazaspiro[3.4]octan-6-one] the inhibition at 10 µM was 100%.
In the case of `O=C1NC2(CO1)CN(C(=O)c1sc3cc(Br)ccc3c1Cl)C2` [Example 307, 2-((6-bromo-3-chloro-1-benzothiophen-2-yl)carbonyl)-7-oxa-2,5-diazaspiro[3.4]octan-6-one], the inhibition at 10 µM is reported as 100%.
`O=C1NC2(CO1)CN(C(=O)c1sc3cc(Cl)cc(Cl)c3c1Cl)C2` [Example 308, 2-((3,4,6-trichloro-1-benzothiophen-2-yl)carbonyl)-7-oxa-2,5-diazaspiro[3.4]octan-6-one] gave an inhibition at 10 µM of 101%.
`O=C1NC2(CO1)CN(C(=O)c1sc3cc(C4=CCC(F)(F)CC4)cc(F)c3c1Cl)C2` [Example 309, 2-((3-chloro-6-(4,4-difluorocyclohex-1-en-1-yl)-4-fluoro-1-benzothiophen-2-yl)carbonyl)-7-oxa-2,5-diazaspiro[3.4]octan-6-one] showed an inhibition at 10 µM of 101%.
In the case of `O=C1NC2(CO1)CN(C(=O)c1sc3cc(C4=CCC(F)(F)CC4)cc(F)c3c1C1=CCC(F)(F)CC1)C2` [Example 310, 2-((3,6-bis(4,4-difluorocyclohex-1-en-1-yl)-4-fluoro-1-benzothiophen-2-yl)carbonyl)-7-oxa-2,5-diazaspiro[3.4]octan-6-one], the inhibition at 10 µM is reported as 100%.
Work on `O=C1NC2(CO1)CN(C(=O)c1sc3cc(C4CC4)cc(F)c3c1Cl)C2` [Example 311, 2-((3-chloro-6-cyclopropyl-4-fluoro-1-benzothiophen-2-yl)carbonyl)-7-oxa-2,5-diazaspiro[3.4]octan-6-one] yielded an inhibition at 10 µM of 101%.
Compound `O=C1NC2(CO1)CN(C(=O)c1sc3cc(C4CC4)cc(F)c3c1C1CC1)C2` [Example 312, 2-((3,6-dichloropropyl-4-fluoro-1-benzothiophen-2-yl)carbonyl)-7-oxa-2,5-diazaspiro[3.4]octan-6-one] has an inhibition at 10 µM of 101%.
Work on `O=C1NC2(CO1)CN(C(=O)c1sc3c(F)ccc(OC(F)F)c3c1Cl)C2` [Example 313, 2-((3-chloro-4-(difluoromethoxy)-7-fluoro-1-benzothiophen-2-yl)carbonyl)-7-oxa-2,5-diazaspiro[3.4]octan-6-one] yielded an inhibition at 10 µM of 101%.
`O=C1NC2(CO1)CN(C(=O)c1sc3cc(F)cc(OC(F)(F)F)c3c1Cl)C2` [Example 314, 2-((3-chloro-6-fluoro-4-(trifluoromethoxy)-1-benzothiophen-2-yl)caarbonyl)-7-oxa-2,5-diazaspiro[3.4]octan-6-one] showed an inhibition at 10 µM of 101%.
In the case of `O=C1NC2(CO1)CN(C(=O)c1sc3c(F)c(OC(F)(F)F)cc(F)c3c1Cl)C2` [Example 315, 2-((3-chloro-4,7-difluoro-6-(trifluoromethoxy)-1-benzothiophen-2-yl)carbonyl)-7-oxa-2,5-diazaspiro[3.4]octan-6-one], the inhibition at 10 µM is reported as 100%.
`O=C1NC2(CO1)CN(C(=O)c1sc3cc(OC(F)(F)F)cc(C(F)F)c3c1Cl)C2` [Example 316, 2-((3-chloro-4-(difluoromethyl)-6-(trifluoromethoxy)-1-benzothiophen-2-yl)carbonyl)-7-oxa-2,5-diazaspiro[3.4]octan-6-one] was tested, and the inhibition at 10 µM was 100%.
`O=C1CCC2(CCN(C(=O)N3CC(COc4ccc(C(F)(F)F)cc4F)C3)C2)N1` (stereo not shown) [Example 319, 7-((3-((2-fluoro-4-(trifluoromethyl)phenoxy)methyl)azetidin-1-yl)carbonyl)-1,7-diazaspiro[4.4]nonan-2-one] gave an inhibition at 10 µM of 96%.
In the case of `O=C1CCC2(CCN(C(=O)N3CC(COc4ccc5c(c4)CCCC5)C3)C2)N1` (stereo not shown) [Example 320, 7-((3-((5,6,7,8-tetrahydronaphthalen-2-yloxy)methyl)azetidin-1-yl)carbonyl)-1,7-diazaspiro[4.4]nonan-2-one], the inhibition at 10 µM is reported as 94%.
`O=C1NC2(CCN(C(=O)c3sc4cc(OC(F)(F)F)ccc4c3Cl)C2)CO1` (stereo not shown) [Example 321, 7-((3-chloro-6-(trifluoromethoxy)-1-benzothiophen-2-yl)carbonyl)-3-oxa-1,7-diazaspiro[4.4]nonan-2-one] was tested, and the inhibition at 10 µM was 100%.
In the case of `O=C1NC2(CCN(C(=O)N3CCC(COc4ccc(F)cc4Cl)CC3)C2)CO1` (stereo not shown) [Example 322, 7-((4-((2-chloro-4-fluorophenoxy)methyl)piperidin-1-yl)carbonyl)-3-oxa-1,7-diazaspiro[4.4]nonan-2-one], the inhibition at 10 µM is reported as 100%.
`O=C1NC2(CCN(C(=O)c3sc4cc(Cl)cc(Cl)c4c3Cl)C2)CO1` (stereo not shown) [Example 325, 7-((3,4,6-trichloro-1-benzothiophen-2-yl)carbonyl)-3-oxa-1,7-diazaspiro[4.4]nonan-2-one] was tested, and the inhibition at 10 µM was 80%.

Same assay, conditions: MAGL inhibitory rate, test compound 10 μM, 60 min preincubation, 2-arachidonylglycerol substrate; 10 µM
`O=C1NC2(CCN(C(=O)c3sc4cc(OC(F)(F)F)ccc4c3Cl)C2)CO1` (stereo not shown) [Example 323, 7-((3-chloro-6-(trifluoromethoxy)-1-benzothiophen-2-yl)carbonyl)-3-oxa-1,7-diazaspiro[4.4]nonan-2-one] was tested, and the “% inhibition (10 μM)” value was 101%.
`O=C1NC2(CCN(C(=O)c3sc4cc(OC(F)(F)F)ccc4c3Cl)C2)CO1` (stereo not shown) [Example 324, 7-((3-chloro-6-(trifluoromethoxy)-1-benzothiophen-2-yl)carbonyl)-3-oxa-1,7-diazaspiro[4.4]nonan-2-one] was tested, and the “% inhibition (10 μM)” value was 94%.
